{"source": "patent US11478445B2", "about": "“Method for treating acute myeloid leukemia” (Bionomics Limited, priority 2017, dated 2022)", "key": {"AML cell lines [1]": {"system": "AML cell lines", "experiment": "Cytotoxicity (CellTox Green) and viability/proliferation (CellTiter-Blue) assays", "type": "cell-based", "method": "The cell lines were plated in 96-well plates (black with clear flat bottom, Costar, 3603) at 2×10^4 cells/well in 50 uL of respective media, containing 0.1% DMSO and CellTox Green reagent (Promega, G8742) at a final dilution of 1/500. Cells were plated in triplicate wells for each dose being tested. EX 1 was reconstituted immediately prior to use at 10 mM in DMSO. The drug was prepared 2× concentrated in media containing 0.1% DMSO and 50 uL added to respective wells. Fluorescence (485-500 nmEx/520-530 nmEm) was measured at 24 h and 48 h with a FLOUstar OPTIMA plate reader (BMG Labtech). After the cytotoxicity measurement at 48 h, 20 μL of CellTiter-Blue reagent (Promega, G8080) was added to each well and the plate incubated for 1 h at 37° C. before fluorescence (560Ex/590Em) was measured with a FLOUstar OPTIMA plate reader (BMG Labtech).\nThe first experiment was performed with HL60 and MOLM13 cell lines. Cells were expanded and when numbers were adequate (and viability higher than 90%) they were plated in 96-well plates at 2×10^4 cells/well in 50 uL of their respective media, containing 0.1% DMSO and CellTox Green reagent. Doses tested ranged from 1 μM followed by serial 1/10 dilutions until 10^−5 nM EX 1, or vehicle only. Plates were cultured and fluorescence (indicating cytotoxicity) was measured at 24 h and 48 h. After the cytotoxicity was read at 48 h, CellTiter-Blue reagent was added to each well. The readout of this assay is based on the metabolic activity of cells and it is used as surrogate marker for proliferation and/or cell viability.\nThe next experiment was performed with the cell lines ME1, OCI-AML3, MV4; 11 and KG1 following the same protocol as above. From the results from the previous experiment it was observed that the non-linear curve fit was very steep between 1 nM and 0.1 nM (FIGS. 1A and B); thus, for this and the subsequent experiments the drug doses were adjusted to: […], 10 nM, 1 nM, 0.75 nM, 0.5 nM, 0.25 nM, 0.1 nM, 0.01 nM and 0.001 nM. […] Cytotoxicity and proliferation (metabolic assay) were measured as above. […]"}, "AML cell lines [2]": {"system": "AML cell lines", "experiment": "Total ROS assay (CM-H2DCFDA, flow cytometry)", "type": "cell-based", "method": "1.25×10^5 cells were harvested into 5 mL tubes and washed with PBS. […] All tubes were incubated at 37° C. for 20 min and then cells washed 3 times with PBS. Cells were resuspended in 300 μL PBS and analysed on an LSRFortessa (BD Biosciences) flow cytometer. Results were analysed with FCS Express 4 Flow Research Edition software (De Novo Software).\nFor that, cells were plated at 10^6 cells/mL and treated with vehicle (DMSO) alone or a range of doses of EX 1 (0.1 nM, 1 nM, 10 nM and 100 nM) for 6 h, 8 h and 24 h. Cells were harvested for detection of ROS and superoxide anion (O2^·−) levels at 6 h and 24 h, for protein extraction at 8 h and 24 h, and for cell cycle analysis at 24 h.\nTotal ROS levels were measured by flow cytometry using the fluorogenic dye CM-H2DCFDA at a final concentration of 5 μM. Mitochondria superoxide anion (O2^·−) levels were measured by flow cytometry using MitoSox, also at a final concentration of 5 μM."}, "HL-60 AML cell line": {"system": "HL-60 AML cell line", "experiment": "MTS proliferation assay, HL-60", "type": "cell-based", "method": "The cell lines (MV4; 11 and HL-60) were plated in 96-well plates at 1×10^4 cells/well in 50 uL of complete growth media. Cells were plated in triplicate wells for each dose being tested. EX 1 (in DMSO), Oxi4503 (EndoTherm, Batch #EN09013, in water), CA4P (Selleckchem, Cat #S7204, in water) and Plinabulin (Selleckchem, Cat #S1176, in DMSO) was reconstituted immediately prior to use at 10 mM in appropriate diluent as indicated. The drug was prepared 2× concentrated in media and 50 uL added to respective wells (0.1% DMSO or water, final concentration). After 72 hours, 20 μL of CellTiter 96 AQueous One Solution reagent (Promega cat #G3581) was added to each well and the plate incubated for 2 h at 37° C. before absorbance was measured at 492 nm using a Thermo Multiskan Ascent96/384 Plate Reader.\nTo compare the efficacy of EX 1 with other tubulin polymerisation inhibitors, MTS proliferation assays were performed on MV4; 11 and HL-60 AML cell lines (Table 1). […] Cells were cultured with the compounds for 72 hours before viability was measured by the addition of CellTiter 96 AQueous One Solution reagent (Promega cat #G3581) and absorbance measured at 492 nm. IC50 was calculated using the absolute IC50 method in GraphPad Prism 6."}, "[3]": {"system": "chronic lymphocytic leukaemia (CLL) cells", "details": "Bates et al. 2016; cited from earlier work"}}, "data": [{"compound": "COc1cc(C(=O)c2c(C)oc3c(O)c(OC)ccc23)cc(OC)c1OC", "note": "[EX 1, 2-Methyl-7-hydroxy-3-(3,4,5-trimethoxybenzoyl)-6-methoxybenzofuran]", "values": [{"measurement": "cytotoxicity and CellTiter response", "setting": "AML cell lines [1]; less sensitive cell lines ME1, OCI-AML3 and KG1", "value": "showed a lower cytotoxicity response"}, {"measurement": "cytotoxicity and inhibitory proliferation response", "setting": "AML cell lines [1]; more sensitive cell lines HL60, MOLM13 and MV4;11", "value": "reached the highest cytotoxicity and showed the largest inhibitory proliferation response"}, {"measurement": "IC50", "setting": "AML cell lines [1]; range over six AML cell lines (MV4;11, MOLM13, HL60, KG1, ME1, OCI-AML3), 48 h, FIGS. 1A and B, read-out: IC50 doses (cytotoxicity and viability)", "value": "0.2 to 1.3", "unit": "nM"}, {"measurement": "total ROS levels", "setting": "AML cell lines [2]; OCI-AML3, 24 h", "value": "dose response reduction in total ROS"}, {"measurement": "total ROS levels", "setting": "AML cell lines [2]; the other cell lines (not OCI-AML3), 6 h and 24 h", "value": "none of the other cell lines showed any changes in total ROS levels"}, {"measurement": "IC50 compared with Oxi4503, CA4P and Plinabulin", "setting": "HL-60 AML cell line; HL-60, 72 h", "value": "lowest IC50"}, {"measurement": "potency relative to any other VDAs (times more potent)", "setting": "HL-60 AML cell line; HL-60, 72 h exposure", "value": "at least 10 times"}, {"measurement": "apoptosis via P-JNK and Noxa", "setting": "[3]", "value": "induce apoptosis"}]}]}
